Results from paper PMC4672112, “Purification, Characterization of L-Methioninase from Candida tropicalis, and Its Application as an Anticancer” (Biotechnology Research International, 2015).

System: T1, L-methioninase
T1 construct: native, intracellular, purified from C. tropicalis cells (heat treatment, DEAE-cellulose, Sephadex); 46 kDa by SDS-PAGE; PLP enzyme
Test: DTNB methanethiol assay, […] nm; Lineweaver-Burk plot
Type: biochemical, Candida tropicalis
Conditions: optimum assay conditions (pH 6.5, 45 C, 10 min), PLP; substrate range printed as 1 to 40 uM, which conflicts with the unit of Km; read-out: apparent Km

## CSCC[C@H](N)C(=O)O [L-methionine]
  Km: 500 µM
